{
  "source": "patent US10738080B2",
  "about": "“Inhibitors of beta integrin-G protein alpha subunit binding interactions” (priority 2010, dated 2020)",
  "key": {"[1]": {"target": "talin association with β3 (Homo sapiens, UniProt Q9Y490)", "sequence (Q9Y490 whole entry)": "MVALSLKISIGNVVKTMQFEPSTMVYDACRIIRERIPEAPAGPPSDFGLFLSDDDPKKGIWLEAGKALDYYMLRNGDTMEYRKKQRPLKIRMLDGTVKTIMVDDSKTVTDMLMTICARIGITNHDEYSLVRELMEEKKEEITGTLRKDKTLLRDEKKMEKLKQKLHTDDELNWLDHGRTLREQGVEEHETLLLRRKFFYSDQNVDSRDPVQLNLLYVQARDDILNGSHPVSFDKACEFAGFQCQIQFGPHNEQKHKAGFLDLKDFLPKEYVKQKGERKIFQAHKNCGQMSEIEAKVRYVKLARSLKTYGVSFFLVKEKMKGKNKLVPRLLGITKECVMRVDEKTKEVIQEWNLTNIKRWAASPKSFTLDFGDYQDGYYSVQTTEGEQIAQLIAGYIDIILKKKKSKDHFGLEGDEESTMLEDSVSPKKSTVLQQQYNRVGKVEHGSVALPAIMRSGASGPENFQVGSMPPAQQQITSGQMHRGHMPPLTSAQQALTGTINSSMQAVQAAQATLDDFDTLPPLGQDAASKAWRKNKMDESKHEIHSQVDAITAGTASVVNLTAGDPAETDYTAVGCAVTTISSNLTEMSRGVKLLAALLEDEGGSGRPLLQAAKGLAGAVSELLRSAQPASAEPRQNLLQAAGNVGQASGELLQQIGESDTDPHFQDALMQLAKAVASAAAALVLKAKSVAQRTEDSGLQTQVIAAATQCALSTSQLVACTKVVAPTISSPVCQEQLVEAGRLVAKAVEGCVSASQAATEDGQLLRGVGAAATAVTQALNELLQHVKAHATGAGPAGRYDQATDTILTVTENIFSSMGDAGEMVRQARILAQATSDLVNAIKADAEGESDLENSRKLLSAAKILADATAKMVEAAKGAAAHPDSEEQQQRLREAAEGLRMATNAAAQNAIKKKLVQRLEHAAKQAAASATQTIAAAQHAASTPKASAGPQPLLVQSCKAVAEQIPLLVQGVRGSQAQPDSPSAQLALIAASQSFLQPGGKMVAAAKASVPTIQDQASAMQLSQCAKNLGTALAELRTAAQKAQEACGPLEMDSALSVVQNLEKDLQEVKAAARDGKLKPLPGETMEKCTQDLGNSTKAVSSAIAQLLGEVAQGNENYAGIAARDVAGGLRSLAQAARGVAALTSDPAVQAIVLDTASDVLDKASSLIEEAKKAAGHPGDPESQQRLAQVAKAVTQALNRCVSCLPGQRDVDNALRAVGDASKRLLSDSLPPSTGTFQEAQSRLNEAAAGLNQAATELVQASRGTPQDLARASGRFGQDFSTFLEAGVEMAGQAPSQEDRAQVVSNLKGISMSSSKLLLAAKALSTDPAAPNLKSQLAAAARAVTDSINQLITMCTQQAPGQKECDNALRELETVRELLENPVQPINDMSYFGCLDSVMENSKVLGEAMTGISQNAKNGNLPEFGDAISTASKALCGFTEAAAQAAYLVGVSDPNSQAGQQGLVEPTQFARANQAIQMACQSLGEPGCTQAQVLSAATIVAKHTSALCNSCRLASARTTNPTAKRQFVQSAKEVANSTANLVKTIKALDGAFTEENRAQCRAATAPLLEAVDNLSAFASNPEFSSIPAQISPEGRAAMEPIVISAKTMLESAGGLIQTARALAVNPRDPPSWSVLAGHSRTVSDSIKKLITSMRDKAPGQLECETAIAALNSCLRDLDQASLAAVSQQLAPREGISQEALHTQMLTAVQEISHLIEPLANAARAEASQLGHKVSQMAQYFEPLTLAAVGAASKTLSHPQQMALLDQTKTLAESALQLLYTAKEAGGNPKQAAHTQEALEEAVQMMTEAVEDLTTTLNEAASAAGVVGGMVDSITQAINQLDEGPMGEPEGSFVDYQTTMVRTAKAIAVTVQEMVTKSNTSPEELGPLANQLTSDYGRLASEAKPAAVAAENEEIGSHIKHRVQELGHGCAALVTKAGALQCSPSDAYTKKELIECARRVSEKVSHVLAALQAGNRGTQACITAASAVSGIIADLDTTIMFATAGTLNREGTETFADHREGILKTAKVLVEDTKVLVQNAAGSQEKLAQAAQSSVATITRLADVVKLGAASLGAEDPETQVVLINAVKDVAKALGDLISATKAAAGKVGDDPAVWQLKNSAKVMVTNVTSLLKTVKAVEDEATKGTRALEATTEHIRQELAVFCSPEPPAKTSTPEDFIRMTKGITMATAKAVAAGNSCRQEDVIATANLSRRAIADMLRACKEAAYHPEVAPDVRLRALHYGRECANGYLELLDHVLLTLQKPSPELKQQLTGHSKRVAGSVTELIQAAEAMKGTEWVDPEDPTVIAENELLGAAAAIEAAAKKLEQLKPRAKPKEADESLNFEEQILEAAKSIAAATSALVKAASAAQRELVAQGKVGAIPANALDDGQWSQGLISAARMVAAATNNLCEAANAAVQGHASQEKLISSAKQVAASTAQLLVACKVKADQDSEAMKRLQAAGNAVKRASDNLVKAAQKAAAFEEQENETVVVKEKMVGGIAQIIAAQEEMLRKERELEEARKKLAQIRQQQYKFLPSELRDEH", "details": "500 μM peptide, 0.025 U/ml thrombin at 22° C.", "procedure": "Cell lysates were incubated with rabbit anti-Gα13 IgG (1.5 μg/ml), anti-integrin β3 rabbit serum (5 μl/ml) or an equal amount of rabbit IgG or pre-immune serum at 4° C. overnight, and subsequently with protein A-conjugated Sepharose beads for 1 hour. For the integrin β3 clustering experiment, human platelets (3×10^8) were stimulated with 0.025 U/ml α-thrombin for 2 minutes at room temperature (to avoid platelet aggregation) with or without 2 mM RGDS, then incubated with 5 μl anti-integrin β3 8053 rabbit serum at room temperature for 1 hour, and 5 μg goat anti-rabbit secondary antibody for another 1 hour. Platelets were then solubilized in modified RIPA Buffer. For the un-clustering control and pre-immune serum control, cells were solubilized in modified RIPA Buffer first, than incubated with 5 μl 8053 serum or pre-immune serum. After 3-6 washes with lysis buffer, immunoprecipitates were analyzed by SDS-polyacrylamide gel electrophoresis and Western blots using antibodies against β3, talin, or Gα13. In some experiments, 500 μM control or inhibitor peptides, mP5, mP7 and mP13 were incubated with platelet lysates prior to immunoprecipitation, or 2 mM RGDS was added into washed human platelets before stimulation by 0.025 U/ml α-thrombin. GST bead pull down analysis was previously described^8. […] Bead-bound proteins were analyzed by immunoblotting."}, "human platelets [2]": {"system": "human platelets", "details": "resting platelets, 250 μM peptide", "procedure": "Platelet Adhesion Assays were carried out as follows: As described before(6), microtiter wells were coated with 30 μg/ml fibrinogen in PBS overnight. Washed human platelets in modified Tyrode's buffer in the absence or presence of 1 mM MnCl2 were incubated in the microtiter wells for one hour at 37° C. in a CO2 incubator. After 3 washes, 50 μl of reaction buffer (0.3% p-nitrophenyl phosphate (Sigma) in 1% Triton-X-100, 50 mM sodium acetate, pH 5.0) was added into each microtiter well and incubated at 37° C. for one hour. The reaction was stopped by adding 50 μl of 1 M NaOH. Results were determined by reading OD at 405 nm wave length. The percentage of platelet adhesion was estimated from the ratio of the readings of adherent platelets to that of total platelets. Statistic significance was determined using t test (n=3)."}, "human platelets [3]": {"system": "human platelets", "assay_type": "cell-based", "details": "for integrin outside-in signaling (early phase): human platelets on fibrinogen, 250 μM peptide; for platelet spreading on fibrinogen: human platelets, immobilized fibrinogen", "procedure": "The clots were photographed at various time points. […] Statistical significance was determined using t-test.\nStudies using human platelets were approved by institutional review board of University of Illinois at Chicago.\nCoverslides were pre-coated with 100 μg/ml fibrinogen and blocked with 5% BSA in PBS. 300 μl αIIbβ3-expressing CHO cells (expressing WT or mutant integrins; 1×10^5/ml) or platelets (1×10^7/ml) suspended in Tyrode's buffer were added to coverslides and incubated at 37° C. for various lengths of time. Cells were fixed with 4% paraformaldehyde (PFA) for 10 minutes and permeabilized with 0.1% Triton X-100 in PBS for 2 minutes. After blocking with 5% BSA for 10 minutes, coverslides were incubated with 0.2 μg/ml mAb 15, or Alexa Fluor-546 conjugated phalloidin. For mouse platelets re-express wild type β3 or the AAA mutant of β3, β3 was immuno-stained with the anti-β3 monoclonal antibody MAb 15 and Alexa Fluor-546 conjugated phalloidin. The slides were scanned with a Zeiss LSM5 10 META confocal microscope as previously described^11"}, "human platelets [4]": {"system": "human platelets", "details": "PAR4AP 50 μM, 250 μM peptide (150 μM also in FIG. 17G)", "procedure": "Washed human or mouse platelets resuspended in modified Tyrode's buffer (3×10^8/ml, 50 μl) were incubated with 10 μg/ml Oregon Green^488-conjugated fibrinogen (Molecular Probes) and 50 μM PAR4AP for 30 minutes at 22° C. as previously described^26. The reaction was diluted with 0.5 ml of PBS and analyzed by flow cytometry using FACS Caliber (BD Biosciences, San Jose, Calif.)."}, "platelets": {"system": "platelets", "details": "ATP secretion", "procedure": "(§1) Platelet aggregation assays were carried out as follows: Platelet aggregation and secretion was measured in a turbidometric platelet aggregometer (Chronolog) at 37° C. with stirring (1000 rpm). Washed platelets (3×10^8/ml) in modified Tyrode's buffer were stimulated with thrombin (Enzyme Research Laboratories). For talin knockdown platelet aggregation assay stimulated with manganese and ADP, manganese and ADP was mixed prior to experiment to achieve final concentration of 1 mM manganese and 5 μM ADP in reaction tube. Aggregation traces shown are representative of at least three independent experiments."}, "mouse platelets": {"system": "mouse platelets", "details": "30 μM peptide", "procedure": "as §1"}, "[5]": {"system": "human platelet-rich plasma", "details": "250 μM peptide", "procedure": "Studies using human platelets were approved by the Institutional Review Board of University of Illinois at Chicago. […] Clot retraction was analyzed with the previously described method (S6, S7). Briefly, mouse platelets (6×10^8/ml) were resuspended in platelet-depleted human plasma, and 0.4 U/ml α-thrombin was added to initiate coagulation. The clots were photographed at various time points. Sizes of retracted clots on photographs were quantified using NIH Image J software. Statistical significance was determined using t-test.\nClot Retraction Assays were carried out as follows: Similar as described before(2, 3), freshly prepared human whole blood was citrated with 1/10 volume of 3.8% sodium citrate. After centrifugation at 1300 rpm for 22 min with break, platelet rich plasma (PRP) was collected. Pre-incubated of PRP with 0.05% DMSO (vehicle), 250 μM mP5 peptide, 250 μM mP13 peptide, or their corresponding scrambled control peptides mP5Scr or mP13Scr for 5 minutes at room temperature. After that, 0.5 U/ml thrombin was added into PRP and mixed gently. The clots were formed and allowed to retract at 37° C. incubator with CO2 and were photographed at various times. The two-dimensional sizes of retracted clots on photographs were quantified using Image J software and were expressed as clot size. Statistical significance was determined using a t test (n=3)."}, "RhoA": {"system": "RhoA", "experiment": "RhoA activity assay (GST-RBD pull down) in platelets", "assay_type": "cell-based, human", "details": "human platelets adherent to fibrinogen", "quoted_text": "Platelets in modified Tyrode's buffer or adherent on immobilized fibrinogen were lysed quickly in 0.8 ml lysis buffer (50 mM Tris, pH 7.4, 10 mM MgCl2, 500 mM NaCl, 1% Triton X-100, 0.1% SDS, 0.5% deoxycholate, 10 μg/ml each of aprotinin and leupeptin, 1 mM phenylmethylsulfonyl fluoride, and 200 μM sodium vanadate). Lysates were cleared by centrifugation at 18,000 g for 2 minutes at 4° C., and the supernatant was incubated for 1 hour with 30 μg purified GST-Rhotekin RhoA-binding domain fusion protein (GST-RBD) bound to glutathione-Sepharose beads (S10). Samples were washed three times using washing buffer (50 mM Tris, pH 7.4, 10 mM MgCl2, 150 mM NaCl, 1% Triton X-100) and then immunoblotted with an anti-RhoA monoclonal antibody. Cell lysates were also immunoblotted with anti-RhoA as loading control."}, "human platelets [6]": {"system": "human platelets", "procedure": "as §1\nPlatelet aggregation assays were performed with myristoylated peptide mP5, myristoylated peptide of SEQ: ID NO: 87, or their respective scarmbled control peptides, as essentially described herein. Briefly, washed human platelets were preincubated with 25, 50, 100, 250, or 500 μM peptide solubilized in DMSO."}},
  "note": "“Also recorded” adds a separate entry of the source. Like-named read-outs stand apart in the source and are kept apart here. No end group written: not given here. *: point of attachment. Myristoyl = CCCCCCCCCCCCCC(=O)*",
  "data": [
    {"substance": "Myr-EEERA [mP5]", "values": [
      {"measurement": "talin association with β3", "setting": "[1]", "result": "not"},
      {"measurement": "platelet adhesion to immobilized fibrinogen", "setting": "human platelets [2]", "result": "nor does it affect"},
      {"measurement": "integrin outside-in signaling (early phase)", "setting": "human platelets [3]", "result": "selectively inhibited"},
      {"measurement": "platelet spreading on fibrinogen", "setting": "human platelets [3]", "result": "abolished; also recorded: inhibited"},
      {"measurement": "platelet spreading on fibrinogen", "setting": "human platelets [3]; listed as Myr-P5", "result": "inhibited"},
      {"measurement": "agonist (PAR4AP)-induced fibrinogen binding to platelets (inside-out signaling)", "setting": "human platelets [4]", "result": "no effect"},
      {"measurement": "agonist (PAR4AP)-induced fibrinogen binding to platelets (inside-out signaling)", "setting": "human platelets [4]; listed as Myr-P5", "result": "without affecting"},
      {"measurement": "platelet granule secretion", "setting": "platelets", "result": "inhibited"},
      {"measurement": "platelets aggregation induced by thrombin", "setting": "mouse platelets", "result": "inhibited"},
      {"measurement": "clot retraction", "setting": "[5]", "result": "accelerated"},
      {"measurement": "RhoA activation (RhoA activity)", "setting": "RhoA", "result": "increased"},
      {"measurement": "c-Src-dependent transient RhoA inhibition", "setting": "RhoA", "result": "inhibited"},
      {"measurement": "platelet aggregation induced by thrombin", "setting": "human platelets [6]", "result": "inhibited"},
      {"measurement": "second wave of platelet aggregation", "setting": "human platelets [6]", "result": "inhibited"},
      {"measurement": "platelets aggregation induced by thrombin", "setting": "human platelets [6]; 30 μM peptide, human platelets", "result": "inhibited"},
      {"measurement": "platelets aggregation induced by thrombin", "setting": "human platelets [6]; 200 μM peptide", "result": "inhibited"}
    ]},
    {"substance": "Myristoyl-KFEEERA [mP7]", "values": [
      {"measurement": "platelet spreading on fibrinogen", "setting": "human platelets [3]", "result": "abolished"},
      {"measurement": "c-Src-dependent transient RhoA inhibition", "setting": "RhoA", "result": "inhibited"}
    ]},
    {"substance": "Myristoyl-KFEEERARAKWDT [mP13]", "values": [
      {"measurement": "talin association with β3", "setting": "[1]", "result": "inhibited"},
      {"measurement": "platelet adhesion to immobilized fibrinogen", "setting": "human platelets [2]", "result": "inhibited"},
      {"measurement": "integrin outside-in signaling (early phase)", "setting": "human platelets [3]", "result": "inhibited"},
      {"measurement": "platelet spreading on fibrinogen", "setting": "human platelets [3]", "result": "abolished"},
      {"measurement": "clot retraction", "setting": "[5]", "result": "inhibited"},
      {"measurement": "c-Src-dependent transient RhoA inhibition", "setting": "RhoA", "result": "inhibited"}
    ]},
    {"substance": "Myristoyl-LLARRPTKGIHEY [mSRI]", "values": [
      {"measurement": "thrombin-promoted platelet spreading", "setting": "human platelets [3]; 0.01 U/ml thrombin", "result": "abolished"},
      {"measurement": "platelet spreading on fibrinogen", "setting": "human platelets [3]", "result": "inhibited"},
      {"measurement": "clot retraction", "setting": "[5]", "result": "accelerated"},
      {"measurement": "RhoA activation (RhoA activity)", "setting": "RhoA", "result": "accelerated"}
    ]}
  ]
}
